This assay concerns the target T1, Zcchc11 enzyme (Homo sapiens, UniProt Q5TAX3).
T1 construct: made in house; host or cells: HEK293 cells (Zcchc11); E. coli Rosetta II (LIN28A)
T1 sequence (Q5TAX3 212-1420): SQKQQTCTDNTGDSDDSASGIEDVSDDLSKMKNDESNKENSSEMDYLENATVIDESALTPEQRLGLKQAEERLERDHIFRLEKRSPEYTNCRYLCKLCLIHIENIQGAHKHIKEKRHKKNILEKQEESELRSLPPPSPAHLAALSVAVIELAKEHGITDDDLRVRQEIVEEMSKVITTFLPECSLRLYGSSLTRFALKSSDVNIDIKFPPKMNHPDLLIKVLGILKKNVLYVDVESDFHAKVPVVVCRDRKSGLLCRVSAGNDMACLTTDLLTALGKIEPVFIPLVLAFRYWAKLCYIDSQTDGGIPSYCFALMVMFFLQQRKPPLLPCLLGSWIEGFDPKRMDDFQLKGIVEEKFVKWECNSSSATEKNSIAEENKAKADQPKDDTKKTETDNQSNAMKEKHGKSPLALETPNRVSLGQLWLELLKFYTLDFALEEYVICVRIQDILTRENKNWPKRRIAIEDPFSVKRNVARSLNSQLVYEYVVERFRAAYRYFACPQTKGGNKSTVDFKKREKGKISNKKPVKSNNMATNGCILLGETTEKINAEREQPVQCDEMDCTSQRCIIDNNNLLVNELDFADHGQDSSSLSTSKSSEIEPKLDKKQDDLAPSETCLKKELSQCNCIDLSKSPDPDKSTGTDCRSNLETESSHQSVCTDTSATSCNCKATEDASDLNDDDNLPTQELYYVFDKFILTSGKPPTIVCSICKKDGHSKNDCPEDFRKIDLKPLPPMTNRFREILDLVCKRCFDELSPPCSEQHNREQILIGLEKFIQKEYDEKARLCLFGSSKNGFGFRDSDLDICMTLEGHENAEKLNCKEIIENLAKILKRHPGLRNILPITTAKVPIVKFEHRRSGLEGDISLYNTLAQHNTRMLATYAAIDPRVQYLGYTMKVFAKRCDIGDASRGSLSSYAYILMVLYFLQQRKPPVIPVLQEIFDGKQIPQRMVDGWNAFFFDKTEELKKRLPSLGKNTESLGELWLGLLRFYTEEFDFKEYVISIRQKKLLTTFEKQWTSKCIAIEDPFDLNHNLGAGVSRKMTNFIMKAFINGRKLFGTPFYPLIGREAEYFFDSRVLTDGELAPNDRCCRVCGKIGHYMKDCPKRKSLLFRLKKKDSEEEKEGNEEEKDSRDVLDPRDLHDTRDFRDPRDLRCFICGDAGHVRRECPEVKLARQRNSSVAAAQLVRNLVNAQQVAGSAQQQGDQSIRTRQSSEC
The assay can be described thus: TUTase assay (Zcchc11 assay, Lin28a-dependent polyuridylation of pre-let-7). In kind it is biochemical. The note with it: Lin28a-dependent Zcchc11 (Z11) TUTase assay; read-out: Potency Lin28a-dep Z11 IC50. Put shortly:
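Polyuridylation measured as fluorescein loss when a rhodamine-labelled A20 probe anneals to U-tails added to fluorescein pre-let-7 (2 nM). Reaction: truncated Zcchc11 0.2 nM, E. coli-made LIN28A 10 nM, UTP 5 uM, HEPES pH 7.3, room temperature. Initial rates fitted to four-parameter IC50.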
Broadly, the IC50 is the concentration that gives 50% inhibition. Consider `CC1CC1n1cc(C(=O)O)c(=O)c2cc(F)c(N3CCC[C@@H]3COc3ccccn3)cc21` (stereo partly drawn) [Example 446, 6-fluoro-1-(2-methylcyclo-propyl)-4-oxo-7-((R)-2-((pyridin-2-yloxy)methyl)pyrrolidin-1-yl)-1,4-dihydro-quinoline-3-carboxylic acid], for which the concentration for half-maximal inhibition (IC50) lay within 1000 to 10000 nM.

As for `O=C(O)c1cn(C2CC2)c2cc(N3CCC[C@@H]3COc3ccccn3)c(F)cc2c1=O` [Example 447, (R)-1-cyclopropyl-6-fluoro-4-oxo-7-(2-((pyridin-2-yloxy)methyl)pyrrolidin-1-yl)-1,4-dihydroquinoline-3-carboxylic acid], the 50% inhibitory concentration (IC50) lay within 1000 to 10000 nM.

With `O=C(O)c1cn(C2CCC2)c2cc(N3CCC[C@@H]3COc3ccccn3)c(F)cc2c1=O` [Example 448, (R)-1-cyclobutyl-6-fluoro-4-oxo-7-(2-((pyridin-2-yloxy)methyl)pyrrolidin-1-yl)-1,4-dihydroquinoline-3-carboxylic acid], the IC50 was 1000 to 10000 nM.

`O=C(O)c1cn(C2CCCC2)c2cc(N3CCC[C@@H]3COc3ccccn3)c(F)cc2c1=O` [Example 449, (R)-1-cyclopentyl-6-fluoro-4-oxo-7-(2-((pyridin-2-yloxy)methyl)pyrrolidin-1-yl)-1,4-dihydroquinoline-3-carboxylic acid]: the IC50 lay in the range of 1000 to 10000 nM.

On to `O=C(O)c1cn(C2CCOCC2)c2cc(N3CCC[C@@H]3COc3ccccn3)c(F)cc2c1=O` [Example 450, (R)-6-fluoro-4-oxo-7-(2-((pyridin-2-yloxy)methyl)pyrrolidin-1-yl)-1-(tetrahydro-2H-pyran-4-yl)-1,4-dihydroquinoline-3-carboxylic acid], for which the IC50 was 1000 to 10000 nM.

As to `O=C(O)c1cn(C2COC2)c2cc(N3CCC[C@@H]3COc3ccccn3)c(F)cc2c1=O` [Example 451, (R)-6-fluoro-1-(oxetan-3-yl)-4-oxo-7-(2-((pyridin-2-yloxy)methyl)pyrrolidin-1-yl)-1,4-dihydroquinoline-3-carboxylic acid], the IC50 was 1000 to 10000 nM.

For `O=C(O)c1cn(C2CC(O)C2)c2cc(N3CCC[C@@H]3COc3ccccn3)c(F)cc2c1=O` (stereo partly drawn) [Example 452, (R)-6-fluoro-1-(3-hydroxycyclo-butyl)-4-oxo-7-(2-((pyridin-2-yloxy)methyl)pyrrolidin-1-yl)-1,4-dihydroquinoline-3-carboxylic acid], the IC50 lay within 1000 to 10000 nM.

As to `O=C(O)c1cn(C2CC(CO)C2)c2cc(N3CCC[C@@H]3COc3ccccn3)c(F)cc2c1=O` (stereo partly drawn) [Example 453, (R)-6-fluoro-1-(3-(hydroxymethyl)cyclobutyl)-4-oxo-7-(2-((pyridin-2-yloxy)methyl)pyrrolidin-1-yl)-1,4-dihydroquinoline-3-carboxylic acid], the IC50 lay within 10000 to 50000 nM.

Regarding `Cc1cccnc1OC[C@H]1CCCN1c1cc2c(cc1Cl)c(=O)c(C(=O)O)cn2C1(CO)CC1` [Example 454, (R)-6-chloro-1-(1-(hydroxymethyl)cyclopropyl)-7-(2-(((3-methyl-pyridin-2-yl)oxy)methyl)pyrrolidin-1-yl)-4-oxo-1,4-dihydroquinoline-3-carboxylic acid], the IC50 was in the range of 1000 to 10000 nM.

For `Cc1cccnc1OC[C@H]1CCCN1c1cc2c(cc1Cl)c(=O)c(C(=O)O)cn2C1(C)CCC1` [Example 455, (R)-6-chloro-1-(1-methylcyclobutyl)-7-(2-(((3-methylpyridin-2-yl)oxy)methyl)pyrrolidin-1-yl)-4-oxo-1,4-dihydroquinoline-3-carboxylic acid], the IC50 lay in the range of 1000 to 10000 nM.

Turning to `Cc1cccnc1OC[C@H]1CCCN1c1cc2c(cc1Cl)c(=O)c(C(=O)O)cn2C1(C)COC1` [Example 456, (R)-6-chloro-1-(3-methyloxetan-3-yl)-7-(2-(((3-methylpyridin-2-yl)oxy)methyl)pyrrolidin-1-yl)-4-oxo-1,4-dihydroquinoline-3-carboxylic acid], the IC50 lay in the range of 1000 to 10000 nM.

With `Cc1cccnc1OC[C@H]1CCCN1c1cc2c(cc1Cl)c(=O)c(C(=O)O)cn2C1(C)CCCC1` [Example 457, (R)-6-chloro-1-(1-methylcyclo-pentyl)-7-(2-(((3-methylpyridin-2-yl)oxy)methyl)pyrrolidin-1-yl)-4-oxo-1,4-dihydroquinoline-3-carboxylic acid], the IC50 is not above 1000 nM.

`Cc1cccnc1OC[C@H]1CCCN1c1cc2c(cc1Cl)c(=O)c(C(=O)O)cn2C1CN(C)C1` [Example 458, (R)-6-chloro-1-(1-methylazetidin-3-yl)-7-(2-(((3-methylpyridin-2-yl)oxy)methyl)pyrrolidin-1-yl)-4-oxo-1,4-dihydroquinoline-3-carboxylic acid]: the IC50 is 1000 to 10000 nM.

Regarding `Cc1cccnc1OC[C@H]1CCCN1c1cc2c(cc1Cl)c(=O)c(C(=O)O)cn2C1(C)CCOCC1` [Example 459, (R)-6-chloro-7-(2-(((3-methylpyridin-2-yl)oxy)methyl)pyrrolidin-1-yl)-1-(4-methyltetra-hydro-2H-pyran-4-yl)-4-oxo-1,4-dihydroquinoline-3-carboxylic acid], the IC50 was in the range of 1000 to 10000 nM.

Regarding `Cc1cccnc1OC[C@H]1CCCN1c1cc2c(cc1Cl)c(=O)c(C(=O)O)cn2C1(C)CC1` [Example 460, (R)-6-chloro-1-(1-methylcyclo-propyl)-7-(2-(((3-methylpyridin-2-yl)oxy)methyl)pyrrolidin-1-yl)-4-oxo-1,4-dihydroquinoline-3-carboxylic acid], the IC50 was not above 1000 nM.

Consider `CN1CCC(n2cc(C(=O)O)c(=O)c3cc(Cl)c(N4CCC[C@@H]4COc4ncccc4Cl)cc32)C1` (stereo partly drawn) [Example 461, 6-chloro-7-((R)-2-(((3-chloropyridin-2-yl)oxy)methyl)pyrrolidin-1-yl)-1-(1-methyl-pyrrolidin-3-yl)-4-oxo-1,4-dihydroquinoline-3-carboxylic acid], for which the IC50 is 1000 to 10000 nM.

As for `CN1CCC(n2cc(C(=O)O)c(=O)c3cc(Cl)c(N4CCC[C@@H]4COc4ncccc4Cl)cc32)CC1` [Example 462, (R)-6-chloro-7-(2-(((3-chloropyridin-2-yl)oxy)methyl)pyrrolidin-1-yl)-1-(1-methyl-piperidin-4-yl)-4-oxo-1,4-dihydro-quinoline-3-carboxylic acid], the half-inhibitory concentration (IC50) fell in the range of 1000 to 10000 nM.

Turning to `COCCN1CCC(n2cc(C(=O)O)c(=O)c3cc(Cl)c(N4CCC[C@@H]4COc4ncccc4Cl)cc32)CC1` [Example 463, (R)-6-chloro-7-(2-(((3-chloropyridin-2-yl)oxy)methyl)pyrrolidin-1-yl)-1-(1-(2-methoxy-ethyl)piperidin-4-yl)-4-oxo-1,4-dihydroquinoline-3-carboxylic acid], the IC50 lay within 1000 to 10000 nM.

Consider `CN(C)C1CN(c2ccc(-n3cc(C(=O)O)c(=O)c4cc(Cl)c(N5C[C@@H](F)C[C@@H]5COc5ncccc5Cl)cc43)cn2)C1` [Example 464, 6-chloro-7-((2R,4S)-2-(((3-chloropyridin-2-yl)oxy)methyl)-4-fluoropyrrolidin-1-yl)-1-(6-(3-(dimethylamino)azetidin-1-yl)pyridin-3-yl)-4-oxo-1,4-dihydroquinoline-3-carboxylic acid], for which the IC50 was not above 1000 nM.

In the case of `CN(C)C1CN(c2ccc(-n3cc(C(=O)O)c(=O)c4cc(F)c(N5C[C@@H](F)C[C@@H]5COc5ncccc5F)cc43)cn2)C1` [Example 465, 1-(6-(3-(dimethylamino)azetidin-1-yl)pyridin-3-yl)-6-fluoro-7-((2R,4S)-4-fluoro-2-(((3-fluoropyridin-2-yl)oxy)methyl)pyrrolidin-1-yl)-4-oxo-1,4-dihydroquinoline-3-carboxylic acid], the IC50 is not above 1000 nM.

Turning to `CN(C)C1CN(c2ccc(-n3cc(C(=O)O)c(=O)c4cc(Cl)c(N5C[C@@H](F)C[C@@H]5COc5ncccc5F)cc43)cn2)C1` [Example 466, 6-chloro-1-(6-(3-(dimethylamino)azetidin-1-yl)pyridin-3-yl)-7-((2R,4S)-4-fluoro-2-(((3-fluoropyridin-2-yl)oxy)methyl)pyrrolidin-1-yl)-4-oxo-1,4-dihydroquinoline-3-carboxylic acid], the IC50 is not above 1000 nM.

Source of the values: patent US12662491B2 (Redona Therapeutics, Inc., priority 2020, dated 2026).
